We go through one compound from patent US9290473B2, “Inhibitors of phosphatidylinositol-3-kinase (PI3) and inducers of nitric oxide (NO)” (COUCIL OF SCIENTIFIC & INDUSTRIAL RESEARCH, priority 2009, dated 2016).

Read-outs that look alike come from different tables or passages of the source.

As usually defined, the IC50 is the point on the concentration scale where inhibition reaches its midpoint.

Series [1] relates to Normal human peripheral blood mononuclear cells (PBMC). In words: Cell viability, trypan blue exclusion, normal PBMC. The series is classed as cell-based. As to conditions: 72 hours incubation. The text has this:
(§1) Following cancer cell lines were used: chronic myeloid leukemia cell lines K562, KU812; acute myeloid leukemia cell lines HL60, U937; T-lymphoblastic leukemia cell line Molt-4; prostate cancer cell line PC-3; breast cancer cell line MCF-7; pancreatic cancer cell line MIA PaCa-2. These cancer cell lines were maintained in tissue culture in standard growth medium containing 10% heat-inactivated fetal bovine serum (FBS). Normal human peripheral blood mononuclear cells (PBMC) were separated from whole blood by Ficoll/Hypaque density gradient centrifugation. Peripheral blood samples were collected from normal donors with due approval from the Human Ethics Committee of Indian Institute of Chemical Biology, Kolkata, India, and all experiments with human blood were conducted under an approved institutional Human Ethics committee protocol. Informed consent was provided according to the Declaration of Helsinki. Cancer cell lines and PBMC (5×10^3) in triplicate were incubated in 0.2 mL of standard growth medium containing 10% FBS with varying concentrations of test compounds of the present invention. After 72 hours of incubation, cells were collected by centrifugation (at 1000 g for 5 minutes) and cell-viability was determined by the trypan blue exclusion assay. At least 200 cells were examined in each sample. Because of monolayer culture, treated and untreated PC-3, MCF-7 and MIA PaCa-2 cells were detached from the wells by treatment with Cell Dissociation Solution (Sigma Chemical, St. Louis, Mo.) before counting. Data are represented as IC50 (minimum concentration required to inhibit the viability by 50%) in Table 5.

Series [2] concerns chronic myeloid leukemia cell line K562. Description: Cell viability, trypan blue exclusion, K562. It counts as cell-based. As to conditions: Homo sapiens.
Source text: as §1

Series [3] has as its system acute myeloid leukemia cell line HL60. Description: Cell viability, trypan blue exclusion, HL-60. The series is classed as cell-based. As to conditions: Homo sapiens.
Source text: as §1

Series [4] deals with acute myeloid leukemia cell line U937. Description: Cell viability, trypan blue exclusion, U937. The series is classed as cell-based. The conditions noted are these: Homo sapiens, U-937, 72 hours incubation.
Source text: as §1

The subject of series [5] is T-lymphoblastic leukemia cell line Molt-4. In words: Cell viability, trypan blue exclusion, Molt-4. The series is classed as cell-based, human. The conditions noted are these: 72 hours incubation.
Source text: as §1

In series [6] the test system is breast cancer cell line MCF-7. Description: Cell viability, trypan blue exclusion, MCF-7. It counts as cell-based, human. As to conditions: 72 hours incubation.
Source text: as §1

Series [7] in a line: Sensitivity to spontaneous autooxidation (H2O2 level, TMB reagent). It counts as physicochemical. The conditions noted are these: 30 µM, 30 min and 2 hr in medium alone, with and without Catalase; H2O2 in supernatant. Here is the method:
Spontaneous autooxidation of compounds having phenolic groups produce reactive oxygen species like H2O2. The enzyme Catalase breaks down H2O2 to water, We therefore incubated Compound 1 and 7 (30 µM each) for 30 min and 2 hr in medium alone in the presence and absence of Catalase. Level of H2O2 in the supernatant was then measured as reported using 3,5,3′,5′-tetramethylbenzidine (TMB) reagent (Plant Physiology, 2004, 136, 3114-3123). FIG. 1 represents the data of sensitivity of spontaneous autooxidation of Compound 1 and Compound 7.

A further series concerns U937 cells. In words: Morphology and apoptosis/necrosis in U937 cells (Giemsa; annexin V-FITC/PI flow cytometry). The series is classed as cell-based, human. The conditions noted are these: 24 hours. Here is the method:
U937 cells were treated with standard growth medium alone or with standard growth medium containing hydroxychavicol (30 μM) for 24 hours. Treated and untreated cells were stained with Giemsa and viewed under microscope (magnification ×1000). For measurement of apoptosis/necrosis, cells were left untreated or treated with Compound No. 1 (30 μM) or Compound No.7 (15 μM) for 24 hours. After washing, cells were stained with fluorescein isothiocyanate (FITC)-conjugated annexin V and propidium iodide (PI) and analysed in a flow cytometer (BD LSR, Becton Dickinson).
FIG. 2B indicates flow cytometric determination of apoptosis and necrosis by Compound No.1 (hydroxychavicol) and Compound No.7. Apoptosis and necrosis of U937 cells were induced. Cells were left untreated (extreme left panel), or incubated with Compound No.1 (30 μM) (middle panel) or Compound No.7 (extreme right panel) (15 μM) for 24 hours and processed for flow cytometry after staining with annexin V-FITC and propidium iodide (PI). Viable cells are in the lower left quadrant (stained neither by annexin V nor by PI), early apoptotic cells (stained by annexin V only) are in the lower right quadrant, late-stage apoptotic cells (stained by both annexin V and PI) are in the upper right quadrant and the necrotic cells (stained by PI only) are in the upper left quadrant.
(In general: A flow cytometer gives signals particle by particle.)

The test system of a further series is PI3/Akt pathway. In words: Activation of PI3/Akt pathway in MIA PaCa 2 cells (Western blot of Akt phosphorylation). The series is classed as cell-based, human. The conditions noted are these: 30 μM, 24 hr, reversed by cPTIO 25 μM. As to the method: MIA PaCa 2 cells were pretreated with NAC (5 mM), cPTIO (25 μM), PI3K inhibitor LY294002 (10 μM) for 3 hr followed by treatment with Compound 1 (30 μM) for 24 hr. Whole cell lysates were prepared and the phosphorylation status and protein expression of Akt were analyzed by Western blot. Cells were also treated with medium alone, Compound 1 (30 μM), c-PTIO (nitric oxide scavenger; 25 μM) or compound 1 plus c-PTIO for 24 hr.
A general note: In western blotting, separated proteins are transferred to a membrane and probed.

Series [8] deals with endothelial nitric oxide synthase (eNOS). In words: NOS isoform siRNA transfection of MIA PaCa 2 cells, apoptosis and eNOS expression. It counts as cell-based, human. As to conditions: siRNA 48 hr, then 30 μM for 24 hr. Here is the method: MIA PaCa 2 cells were transfected with control siRNA, nNOS siRNA, iNOS siRNA or eNOS siRNA (purchased from Santa Cruz Biotechnology) for 48 hr. Transfections were carried out following the manufacturer's instructions. The transfection reagent used for siRNA transfection was purchased from Santa Cruz. Cells were then treated with vehicle control or Compound 1 (30 μM) for 24 hr. Apoptosis was analyzed by flow cytometry. To confirm that transfectin with siRNAs attenuate the protein expression of respective NOS isoforms, Western blot was performed with whole cell lysates.

The test system of series [9] is Ehrlich ascites carcinoma (EAC). Description: Ehrlich ascites carcinoma (EAC) model in vivo. The conditions noted are these: 30 mg/kg body weight intraperitoneally thrice a week for three weeks, Swiss albino mice. The text has this: The in vitro studies indicate that hydroxychavicol and other compounds of the present invention induce killing of a variety of cancer cell lines including breast cancer cell line MCF-7 (Table 5). The MCF-7 cell line is of epithelial origin. Studies were extended in vivo in mouse model for a tumor of epithelial origin. Ehrlich ascites carcinoma is a tumor of epithelial origin (Cancer Research, 1958, 18, 1167-1185). EAC was established in Swiss albino mice as described (Biochemical and Biophysical Research Communications, 2001, 288, 658-665). Swiss albino mice were injected with EAC (2×10^6 cells/mouse) intraperitoneally. 2 days post-injection of tumor cells, these mice (5 per group) were injected intraperitoneally with Compound No. 1 (hydroxychavicol) (30 mg/kg body weight) or Compound No. 7 (30 mg/kg body weight) thrice a week for three weeks. One week after the last injection, mice were sacrificed, and viable cells from peritoneal cavity were counted microscopically. Vehicle (dimethyl sulphoxide [DMSO], 0.1%) was used as control.

With `C=CCc1ccc(O)c(O)c1` [Compound 1, 4-allyl-benzene-1,2-diol], the IC50 was 80 µM in series [1]; 20 µM in series [2] (K562, 72 hours incubation, trypan blue exclusion, read-out: Activity (IC50) K562); 13 to 52 µM in [2] (read-out: IC50 against chronic myeloid leukemia cancer cell lines (K562), range over both cell lines K562, KU812 and KU812 and over the listed compounds, read-out: IC50 against chronic myeloid leukemia cancer cell lines (K562, KU812)); 25 µM in [3] (72 hours incubation, trypan blue exclusion, read-out: Activity (IC50) HL-60); 13 to 60 µM in series [3] (range over both cell lines HL60 and U937 and over the listed compounds, read-out: IC50 against acute myeloid leukemia cancer cell line (HL60, U937)); 25 µM in [4]. For the same compound, the IC50 in series [5] was 30 µM; in series [5] (Homo sapiens, MOLT-4, 72 h), 15 to 50 µM; in [6] it was 35 µM; in series [6] (Homo sapiens, MCF7, 72 h), 25 to 70 µM. Moreover, in series [7], the “Sensitivity to spontaneous autooxidation” value is “undergoes spontaneous autooxidation”. In the series with U937 cells (30 μM, Giemsa staining, microscopy), the “Morphology of U937 cells (mode of killing)” value was “due to both apoptosis and necrosis”. The “Apoptosis and necrosis of U937 cells by flow cytometry” value in the series on U937 cells (Compound No.1 30 μM, Compound No.7 15 μM, annexin V-FITC/PI) is “induce apoptosis and necrosis”. The “Effect on activation of PI3/Akt pathway” value in the series on PI3/Akt pathway is “inhibitis the activation of PI3/Akt pathway”. The “NOS isoform involved in induced nitric oxide production and cell death” value in series [8] was “Endothelial nitric oxide synthase (eNOS) is responsible”. Also, the “In vivo efficacy against EAC tumor (viable cells from peritoneal cavity)” value in series [9] was “effective in vivo in destroying EAC tumor”.
